Holding throughout (assay): inhibition of tumour cell growth, NCI panel, 48 h
Assay [1] concerns SF-268.
Assay [2] deals with HL-60.
Assay [3] concerns NCI-H460.
In assay [4] the test system is HT-29.
Assay [5] has as its system HCT-15.
Assay [6] has as its system COLO 205.
Assay [7] has as its system PC-3.
In assay [8] the test system is RPMI-8226.
Assay [9] deals with HCT-116.
Assay [10] has as its system SW-620.
Assay [11] relates to UO-31.
Assay [12] concerns OVCAR-3.
For assay [13], the system named is NCI-H226.
The test system of assay [14] is OVCAR-4.
For assay [15], the system named is 786-0.
In assay [16] the test system is DU-145.
For assay [17], the system named is UACC-257.
Assay [18] deals with CAKI-1.
In assay [19] the test system is LOX IMVI.
Assay [20] concerns RXF 393.

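How tested: cells in 96-well plates exposed to compound for 48 hours at five concentrations. GI50 marks 50% less growth.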 Active and inactive are the calls of the source. Cut-off read from the data, not from the text of the source: active = GI50 up to about 1.1 µM and inactive = higher. Some results are limits rather than exact numbers.

For the molecule `CCOC(=O)C(NC(=O)c1ccccc1)(Nc1ccc(S(=O)(=O)Nc2ncccn2)cc1)C(F)(F)F` (stereo not given), the GI50 in assay [1] is > 100 µM (inactive); in assay [2], > 100 µM (inactive); in [3], > 100 µM (inactive); in [4], > 100 µM (inactive); in assay [5], more than 100 µM; in assay [6], > 100 µM (inactive). For the same molecule, the GI50 in [7], in assay [8], in assay [9], in assay [10], in [11] and in [12] was > 100 µM (inactive) in each case. The GI50 in assay [13], in assay [14], in [15], in [16], in [17] and in [18] was > 100 µM (inactive) throughout. The GI50 in [19] and in assay [20] was > 100 µM (inactive) throughout.
For `N#CC(C#N)=Cn1c(=S)[nH]c2ccc([N+](=O)[O-])cc21`, the GI50 in assay [1], in assay [2], in assay [3], in assay [4], in [6] and in assay [7] was > 100 µM (inactive) each time. Also, the GI50 in assay [8], in [9], in assay [10], in [11], in assay [12] and in [13] was > 100 µM (inactive) each time. Besides, the GI50 was > 100 µM (inactive) in assay [14]; > 100 µM (inactive) in assay [15]; > 100 µM (inactive) in [16]; > 100 µM (inactive) in assay [17]; 71.4 µM (inactive) in assay [18]; > 100 µM (inactive) in [19]. Besides, in assay [20], the GI50 is > 100 µM (inactive).
With `Cc1nn(C(=O)c2ccncc2)c2c1C(c1ccccc1)SC(=N)N2` (stereo not given), the GI50 in [1] is > 10 µM (inactive); in [2], > 10 µM (inactive); in [3], > 10 µM (inactive); in assay [4] it was > 10 µM (inactive); in assay [5], more than 10 µM; in assay [6], > 10 µM (inactive). Also, the GI50 in [7], in assay [8], in assay [9], in assay [10], in [12] and in assay [13] was > 10 µM (inactive) each time. Further, the GI50 in assay [14], in [15], in assay [16], in [17], in assay [18] and in assay [19] was > 10 µM (inactive) each time. In [20], the GI50 was > 10 µM (inactive).
Turning to `Cc1ccc(-c2n[nH]c(=O)n2/N=C\c2ccc([N+](=O)[O-])cc2)cc1`, the GI50 in assay [1] is > 100 µM (inactive); in assay [2], > 35.7 µM (inactive); in assay [3], > 100 µM (inactive); in assay [4] it was > 65.6 µM (inactive); in [5] it was 86.7 µM; in assay [6], > 100 µM (inactive). Further, the GI50 in assay [7] is > 100 µM (inactive); in assay [8], 76.9 µM (inactive); in [9], 72.6 µM (inactive); in [10], > 71.9 µM (inactive); in [11], > 93.3 µM (inactive); in assay [12] it was > 100 µM (inactive). In addition, the GI50 in assay [13], in assay [14], in [15], in assay [16], in assay [17] and in assay [18] was > 100 µM (inactive) each time. For the same molecule, the figures for the GI50 in assay [19] and in assay [20] were > 100 µM (inactive) and > 73.8 µM (inactive), respectively.
For `CNN1C(=O)c2c(C)c(C)c(C#N)c(N)c2C1=O`, the GI50 in assay [1] is > 100 µM (inactive); in assay [2], > 100 µM (inactive); in [3], > 100 µM (inactive); in [5] it was more than 100 µM; in [6], > 100 µM (inactive); in assay [7] it was > 100 µM (inactive). Moreover, the GI50 in assay [8], in [9], in assay [10], in assay [11], in assay [12] and in assay [13] was > 100 µM (inactive) each time. Moreover, the GI50 in assay [14], in [15], in [16], in [17], in [18] and in assay [19] was > 100 µM (inactive) throughout. Further, the GI50 in assay [20] was 40.8 µM (inactive).
In the case of `NC(=S)Nc1c(S(N)(=O)=O)cc(S(N)(=O)=O)c(Cl)c1Cl`, the GI50 in assay [1] was > 100 µM (inactive); in assay [2] it was > 100 µM (inactive); in assay [4], > 100 µM (inactive); in [5] it was more than 100 µM; in assay [6], > 100 µM (inactive); in [7] it was > 100 µM (inactive). For the same molecule, the GI50 in [8], in assay [9], in assay [10], in [11], in assay [12] and in assay [13] was > 100 µM (inactive) throughout. Moreover, the GI50 in assay [14], in [15], in assay [16], in assay [17], in [18] and in assay [19] was > 100 µM (inactive) in each case. Also, the GI50 in assay [20] was > 100 µM (inactive).
In the case of `COc1ccc(-c2cc(C3CC3)nc(SCC(=O)O)c2C#N)cc1`, the GI50 in assay [1] is > 100 µM (inactive); in assay [2] it was 54.5 µM (inactive); in assay [3] it was 52.1 µM (inactive); in [4] it was > 100 µM (inactive); in assay [5], 65.8 µM; in assay [6], > 100 µM (inactive). The GI50 in assay [7] was 79.8 µM (inactive); in assay [8] it was 35.6 µM (inactive); in assay [9], > 100 µM (inactive); in assay [10], > 100 µM (inactive); in [11] it was 1.85 µM (inactive); in assay [12], 83.2 µM (inactive). Further, the GI50 in [13] is 82.6 µM (inactive); in assay [14], 79.8 µM (inactive); in [15] it was > 100 µM (inactive); in assay [16], 85.3 µM (inactive); in assay [17], > 100 µM (inactive); in assay [18] it was > 100 µM (inactive). Moreover, the GI50 was 36.6 µM (inactive) in [19] and 62.8 µM (inactive) in assay [20].
Consider `COC1=C(Cl)C(=O)c2c(O)ccc(O)c2C1=O`, for which the GI50 is 2.43 µM (inactive) in assay [1]; 0.0393 µM (active) in [2]; 4.44 µM (inactive) in assay [3]; 3.15 µM (inactive) in [4]; 1.34 µM in assay [5]; 0.212 µM (active) in assay [6]. The GI50 in assay [7] is 3.07 µM (inactive); in assay [8], 0.272 µM (active); in assay [9], 0.536 µM (active); in assay [10] it was 0.1 µM (active); in assay [11], 1.77 µM (inactive); in assay [12], 0.476 µM (active). Moreover, the GI50 in assay [13] is 11.2 µM (inactive); in assay [14] it was 2.07 µM (inactive); in assay [15], 0.287 µM (active); in [16], 2.38 µM (inactive); in assay [17] it was 1.77 µM (inactive); in assay [18], 0.541 µM (active). For the same molecule, the GI50 in assay [19] is 1.38 µM (inactive); in assay [20] it was 1.3 µM (inactive).
As for `COc1ccc(/C=N/Nc2nc(=S)[nH]c3[nH]ncc23)cc1`, the GI50 was 93.8 µM (inactive) in assay [1]; > 100 µM (inactive) in [2]; 79.8 µM (inactive) in assay [3]; 48.5 µM (inactive) in assay [4]; more than 100 µM in assay [5]; 18.3 µM (inactive) in [6]. Besides, the GI50 in [7] is 52.2 µM (inactive); in assay [8], 2.5 µM (inactive); in assay [9], > 100 µM (inactive); in [10], > 100 µM (inactive); in assay [11], > 100 µM (inactive); in [12] it was 60.7 µM (inactive). In addition, the GI50 in assay [13] was > 100 µM (inactive); in assay [14], 49 µM (inactive); in assay [15] it was 43.4 µM (inactive); in assay [16], 36.5 µM (inactive); in assay [17] it was 55.6 µM (inactive); in assay [18] it was 32.7 µM (inactive). The GI50 in [19] was 33.8 µM (inactive); in [20] it was > 100 µM (inactive).
Regarding `O=C(O)C1CCCCC1c1c2ccc(=O)c(O)c-2oc2c(O)c(O)ccc12` (stereo not given), the GI50 was 9.38 µM (inactive) in assay [1]; 20.7 µM (inactive) in [2]; 37.7 µM (inactive) in [3]; 74.5 µM (inactive) in [4]; > 100 µM (inactive) in assay [6]; > 100 µM (inactive) in assay [7]. Also, the GI50 in assay [8] was 29.9 µM (inactive); in assay [9], 13.2 µM (inactive); in [10], 17.6 µM (inactive); in assay [11], 44.4 µM (inactive); in assay [12] it was 42.1 µM (inactive); in [13], 12.1 µM (inactive). The GI50 is 21.7 µM (inactive) in [14]; 19.3 µM (inactive) in [15]; 52.1 µM (inactive) in assay [16]; > 100 µM (inactive) in assay [17]; 65.6 µM (inactive) in assay [18]; 13.8 µM (inactive) in [19]. In addition, the GI50 in assay [20] is 69.7 µM (inactive).

For the origin of these results see ChEMBL document CHEMBL1201862, “PubChem BioAssay data set” (2004).
